# Where two headings read alike, the source gives them in different places.
# Assays:
# [1] = test system: Candida albicans (standard strain SC5314); assay: In vitro bacteriostatic experiment (minimum in vitro antifungal concentration, MIC80); assay type: cell-based
# Protocol: (I) Experimental method: The conventional in vitro bacteriostatic experiment method was adopted (for details, see: Antimicrob Agents Chemother 1995, 39 (5): 1169).
# The fungal strain selected for this experiment was provided by the Fungal Department of Shanghai Changzheng Hospital (or purchased from the Institute of Materia Medica, Chinese Academy of Sciences).
# Candida albicans (standard strain SC5314)
# Preparation of bacterial suspension: The above fungi were cultured in YEPD liquid medium at 35° C. for 16 hours, activated twice, counted with a blood cell counting plate, and the bacteria concentration was adjusted to 1*10^4 to 1*10^5 cells/mL with RPM1640 liquid medium.
# Preparation of drug solution: The test compound of the invention was dissolved in dimethyl sulfoxide to prepare a 0.8 mg/mL drug storage solution, and the 0.8 mg/mL drug storage solution was diluted to 8 μg/mL with RPM1640 before the experiment.
# Inoculation: RPM1640 100 μL was added as a blank control in well 1 of the 96-well plate; 100 μL of the bacterial suspension was added in each of wells 3-12, 200 μL of the bacterial suspension and 2 μL of the drug solution were added in well 2 and the drug solution in wells 2-11 was diluted […], and the drug concentrations of these wells were 8, 4, 2, 1, 0.5, 0.25, 0.125, 0.0625, 0.0313, and 0.0156 μg/mL, respectively. No drug solution was added in well 12 to make positive control. The drug control was fluconazole.
# [2] = human, microsomes
# [3] = in vitro; settings: human, microsomes
# [4] = Candida albicans, SC5314, read-out: Minimum in vitro antifungal concentration (MIC80)
compound,measurement,setting,value
[2H]C(Oc1ccc(C#Cc2ccc(C(F)(F)[C@](O)(Cn3cnnn3)c3ccc(F)cc3F)nc2)cc1)c1ccc(C#N)cc1 (stereo partly drawn) [Compound D1],MIC80,[1]; [4],0.0156 µg/mL
[2H]C([2H])(Oc1ccc(C#Cc2ccc(C(F)(F)[C@](O)(Cn3cnnn3)c3ccc(F)cc3F)nc2)cc1)c1ccc(C#N)cc1 [Compound D2],MIC80,[1]; [4],0.0156 µg/mL
[2H]C([2H])(n1cnnn1)C(O)(c1ccc(F)cc1F)C(F)(F)c1ccc(C#Cc2ccc(OCc3ccc(C#N)cc3)cc2)cn1 (stereo not drawn) [Compound D3],MIC80,[1]; [4],0.0313 µg/mL
[2H]c1nnnn1CC(O)(c1ccc(F)cc1F)C(F)(F)c1ccc(C#Cc2ccc(OCc3ccc(C#N)cc3)cc2)cn1 (stereo not drawn) [Compound D5],MIC80,[1]; [4],0.0156 µg/mL
OC(Cn1cncn1)(Cn1cncn1)c1ccc(F)cc1F [Fluconazole],MIC80,"[1]; Candida albicans SC5314, RPM1640 medium, 96-well dilution 8-0.0156 μg/mL, read-out: Minimum in vitro antifungal concentration (MIC80)",0.5 µg/mL
Cc1ncc2n1-c1ccc(Cl)cc1C(c1ccccc1F)=NC2 [Midazolam],"CLint, microsome (in vitro intrinsic clearance)",[2],274 μL × min^−1 × mg^−1 proteins
same,k (clearance constant),[2],0.0548 min⁻¹
same,half-life,[3],0.212 h
N#Cc1ccc(COc2ccc(C#Cc3ccc(C(F)(F)[C@](O)(Cn4cnnn4)c4ccc(F)cc4F)nc3)cc2)cc1 [VT-1598],MIC80,[1]; [4],0.0156 µg/mL
same,"CLint, microsome (in vitro intrinsic clearance)",[2],10.6 μL × min^−1 × mg^−1 proteins
same,k (clearance constant),[2],0.0053 min⁻¹
same,half-life at 1 μM,[3],2.33 h

# — patent US20200317636A1, “DEUTERATED AZOLE COMPOUNDS AND PREPARATION METHOD THEREFOR AND USES THEREOF” (priority 2017, published 2020)
